# Assay results taken from patent US10131652B2, “Pyrimidinyloxy benzene derivatives as herbicides” (E. I. DU PONT DE NEMOURS AND COMPANY, priority 2014, dated 2018).
# Key:
# Format in all cases: in vivo
# [1] = test system: ragweed (common ragweed, Ambrosia elatior); experiment: Test B pre-/postemergence plant response
# Method in brief: (§1)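 Scoring used a 0–100 scale (100 = complete control) by visual comparison with untreated plants after approximately 10 days in the greenhouse. Compounds, in surfactant-containing non-phytotoxic solvent, were sprayed onto soil at planting or onto 2–10 cm seedlings.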
# kochia (Kochia scoparia) = experiment: Test B pre-/postemergence plant response
# Method in brief: as §1
# [2] = test system: Italian ryegrass (Lolium multiflorum); experiment: Test B pre-/postemergence plant response
# Method in brief: as §1
# [3] = test system: barnyardgrass (Echinochloa crus-galli); experiment: Test D pre-/postemergence plant response
# Method in brief: (§2)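 Ratings were visual, 0 = no effect to 100 = complete control, taken against untreated controls after 13 to 15 days in a greenhouse. Chemicals, formulated in non-phytotoxic surfactant-containing solvent, went onto soil (loam/sand) at planting for preemergence, or onto 1- to 4-leaf plants (2–18 cm) for postemergence.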
# [4] = test system: velvetleaf (Abutilon theophrasti); experiment: Test D pre-/postemergence plant response
# Method in brief: as §2
# [5] = test system: johnsongrass (Sorghum halepense); experiment: Test D pre-/postemergence plant response
# Method in brief: as §2
# [6] = test system: pigweed (Amaranthus retroflexus); experiment: Test D pre-/postemergence plant response
# Method in brief: as §2
# [7] = test system: giant foxtail (Setaria faberii); experiment: Test D pre-/postemergence plant response
# Method in brief: as §2
# [8] = test system: oilseed rape (Brassica napus); experiment: Test D pre-/postemergence plant response
# Method in brief: as §2
# [9] = test system: blackgrass (Alopecurus myosuroides); experiment: Test D pre-/postemergence plant response
# Method in brief: as §2
# [10] = test system: small-flower umbrella sedge (Cyperus difformis); experiment: Test C flooded paddy test plant response; conditions: Flood, 250 g ai/ha; scale of 0 to 100 where 0 is no effect and 100 is complete control; 13 to 15 days
# Method in brief: (§3)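 Greenhouse paddy assay, 13–15 days. Treatment into 3 cm floodwater over 2-leaf plants; visual 0–100 rating against controls.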
# rice (Oryza sativa) = experiment: Test C flooded paddy test plant response; conditions: Flood, 250 g ai/ha; scale of 0 to 100 where 0 is no effect and 100 is complete control; 13 to 15 days
# Method in brief: as §3
# [11] = test system: barnyardgrass (Echinochloa crus-galli); experiment: Test C flooded paddy test plant response; conditions: Flood, 250 g ai/ha; scale of 0 to 100 where 0 is no effect and 100 is complete control; 13 to 15 days
# Method in brief: as §3
# [12] = test system: ducksalad (Heteranthera limosa); experiment: Test C flooded paddy test plant response; conditions: Flood, 250 g ai/ha; scale of 0 to 100 where 0 is no effect and 100 is complete control; 13 to 15 days
# Method in brief: as §3
# [13] = 31 g ai/ha, Preemergence, 0 to 100 scale where 0 is no effect and 100 is complete control
# [14] = 125 g ai/ha, postemergence, 0 to 100 scale, 0 no effect, 100 complete control
# [15] = Postemergence, 31 g ai/ha, 0 to 100 scale (0 no effect, 100 complete control)
# [16] = Preemergence, 125 g ai/ha, 0 to 100 scale (0 no effect, 100 complete control)
# [17] = Postemergence, 16 g ai/ha, scale 0 to 100 (0 no effect, 100 complete control)
# [18] = Postemergence, 31 g ai/ha, scale 0 to 100 (0 no effect, 100 complete control)
# [19] = Postemergence, 62 g ai/ha, scale 0 to 100, 0 no effect, 100 complete control
# [20] = Postemergence, 125 g ai/ha, scale 0 to 100, 0 no effect, 100 complete control
# [21] = Preemergence, 8 g ai/ha, scale 0 to 100 (0 no effect, 100 complete control)
# [22] = Preemergence, 16 g ai/ha, scale 0 to 100 (0 no effect, 100 complete control)
# [23] = Preemergence, 31 g ai/ha, scale 0 to 100 (0 no effect, 100 complete control)
# [24] = Preemergence, 62 g ai/ha, scale 0 to 100 (0 no effect, 100 complete control)
structure (smiles),measurement,setting,value
FC(F)(Cl)c1cc(-c2ccccc2Oc2ncc(Cl)cn2)no1 [Compound 143],"Plant response rating, Ragweed",[1]; [13],0
same,"Plant response rating, Ragweed",[1]; [14],20
same,"Plant response rating, Ragweed",[1]; [15],0
same,Ragweed plant response rating,[1]; [16],30
same,"Plant response rating, Kochia",kochia (Kochia scoparia); [13],30
same,"Plant response rating, Kochia",kochia (Kochia scoparia); [14],100
same,"Plant response rating, Kochia",kochia (Kochia scoparia); [15],100
same,Kochia plant response rating,kochia (Kochia scoparia); [16],90
same,"Plant response rating, Ryegrass, Italian",[2]; [13],0
same,"Plant response rating, Ryegrass, Italian",[2]; [14],50
same,"Plant response rating, Ryegrass, Italian",[2]; [15],0
same,"Ryegrass, Italian plant response rating",[2]; [16],60
same,Barnyardgrass plant response rating,[3]; [17],5
same,Barnyardgrass plant response rating,[3]; [18],5
same,"Plant response rating, Barnyardgrass",[3]; [19],10
same,"Plant response rating, Barnyardgrass",[3]; [20],65
same,"Plant response rating, Barnyardgrass",[3]; [21],5
same,"Plant response rating, Barnyardgrass",[3]; [22],20
same,"Plant response rating, Barnyardgrass",[3]; [23],70
same,"Plant response rating, Barnyardgrass",[3]; [24],98
same,Velvetleaf plant response rating,[4]; [18],30
same,"Plant response rating, Velvetleaf",[4]; [19],50
same,"Plant response rating, Velvetleaf",[4]; [20],65
same,"Plant response rating, Velvetleaf",[4]; [21],35
same,"Plant response rating, Velvetleaf",[4]; [22],30
same,"Plant response rating, Velvetleaf",[4]; [23],75
same,"Plant response rating, Velvetleaf",[4]; [24],85
same,Johnsongrass plant response rating,[5]; [18],5
same,"Plant response rating, Johnsongrass",[5]; [19],30
same,"Plant response rating, Johnsongrass",[5]; [20],30
same,"Plant response rating, Johnsongrass",[5]; [21],35
same,"Plant response rating, Johnsongrass",[5]; [22],15
same,"Plant response rating, Johnsongrass",[5]; [23],60
same,"Plant response rating, Johnsongrass",[5]; [24],80
same,Pigweed plant response rating,[6]; [18],90
same,"Plant response rating, Pigweed",[6]; [19],100
same,"Plant response rating, Pigweed",[6]; [20],100
same,"Plant response rating, Pigweed",[6]; [21],90
same,"Plant response rating, Pigweed",[6]; [22],100
same,"Plant response rating, Pigweed",[6]; [23],100
same,"Plant response rating, Pigweed",[6]; [24],100
same,"Foxtail, Giant plant response rating",[7]; [17],5
same,"Foxtail, Giant plant response rating",[7]; [18],10
same,"Plant response rating, Foxtail, Giant",[7]; [19],10
same,"Plant response rating, Foxtail, Giant",[7]; [20],50
same,"Plant response rating, Foxtail, Giant",[7]; [21],40
same,"Plant response rating, Foxtail, Giant",[7]; [22],85
same,"Plant response rating, Foxtail, Giant",[7]; [23],100
same,"Plant response rating, Foxtail, Giant",[7]; [24],100
same,Oilseed Rape plant response rating,[8]; [18],50
same,"Plant response rating, Oilseed Rape",[8]; [19],60
same,"Plant response rating, Oilseed Rape",[8]; [20],65
same,"Plant response rating, Oilseed Rape",[8]; [21],0
same,"Plant response rating, Oilseed Rape",[8]; [22],0
same,"Plant response rating, Oilseed Rape",[8]; [23],85
same,"Plant response rating, Oilseed Rape",[8]; [24],95
same,Blackgrass plant response rating,[9]; [17],10
same,Blackgrass plant response rating,[9]; [18],10
same,"Plant response rating, Blackgrass",[9]; [19],20
same,"Plant response rating, Blackgrass",[9]; [20],30
same,"Plant response rating, Blackgrass",[9]; [21],0
same,"Plant response rating, Blackgrass",[9]; [22],10
same,"Plant response rating, Blackgrass",[9]; [23],15
same,"Plant response rating, Blackgrass",[9]; [24],90
same,"Sedge, Umbrella plant response rating",[10],100
same,Rice plant response rating,rice (Oryza sativa),35
same,Barnyardgrass plant response rating,[11],30
same,Ducksalad plant response rating,[12],85
